From ChEMBL document CHEMBL1201862, “PubChem BioAssay data set” (2004)
The source made the active and inactive calls.

What was measured:
Protein Rev = Protein Rev (Human immunodeficiency virus type 1 group M subtype B (isolate HXB2)(HIV-1), UniProt P04618); test: inhibitors of Rev binding to RRE RNA, dose response, biochemical, fluorescence polarization, HIV-1 (AID 434976); design: species or system Human immunodeficiency virus 1
[1] = target: Serine/threonine-protein phosphatase (Homo sapiens, UniProt Q9BPW0); test: PP5 phosphatase inhibitors, dose response, biochemical, fluorescence (AID 2395)
[2] = target: Female germline-specific tumor suppressor gld-1 (Caenorhabditis elegans, UniProt Q17339); test: inhibitors of GLD-1 binding to TGE RNA, dose response, biochemical, fluorescence polarization, C. elegans (AID 2802);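 further: fluorescence polarization of labeled TGE RNA bound by purified gld-1 protein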
[3] = target: T1, Sentrin-specific protease 6 (Homo sapiens, UniProt Q9GZR1); test: SAR Analysis of small molecule inhibitors of Sentrin-specific protease 6 (SENP6) using a Luminescent assay. [Related pubchem assays (depositor defined):AID2582, AID2599]; type: functional
T1 sequence (Q9GZR1 whole entry): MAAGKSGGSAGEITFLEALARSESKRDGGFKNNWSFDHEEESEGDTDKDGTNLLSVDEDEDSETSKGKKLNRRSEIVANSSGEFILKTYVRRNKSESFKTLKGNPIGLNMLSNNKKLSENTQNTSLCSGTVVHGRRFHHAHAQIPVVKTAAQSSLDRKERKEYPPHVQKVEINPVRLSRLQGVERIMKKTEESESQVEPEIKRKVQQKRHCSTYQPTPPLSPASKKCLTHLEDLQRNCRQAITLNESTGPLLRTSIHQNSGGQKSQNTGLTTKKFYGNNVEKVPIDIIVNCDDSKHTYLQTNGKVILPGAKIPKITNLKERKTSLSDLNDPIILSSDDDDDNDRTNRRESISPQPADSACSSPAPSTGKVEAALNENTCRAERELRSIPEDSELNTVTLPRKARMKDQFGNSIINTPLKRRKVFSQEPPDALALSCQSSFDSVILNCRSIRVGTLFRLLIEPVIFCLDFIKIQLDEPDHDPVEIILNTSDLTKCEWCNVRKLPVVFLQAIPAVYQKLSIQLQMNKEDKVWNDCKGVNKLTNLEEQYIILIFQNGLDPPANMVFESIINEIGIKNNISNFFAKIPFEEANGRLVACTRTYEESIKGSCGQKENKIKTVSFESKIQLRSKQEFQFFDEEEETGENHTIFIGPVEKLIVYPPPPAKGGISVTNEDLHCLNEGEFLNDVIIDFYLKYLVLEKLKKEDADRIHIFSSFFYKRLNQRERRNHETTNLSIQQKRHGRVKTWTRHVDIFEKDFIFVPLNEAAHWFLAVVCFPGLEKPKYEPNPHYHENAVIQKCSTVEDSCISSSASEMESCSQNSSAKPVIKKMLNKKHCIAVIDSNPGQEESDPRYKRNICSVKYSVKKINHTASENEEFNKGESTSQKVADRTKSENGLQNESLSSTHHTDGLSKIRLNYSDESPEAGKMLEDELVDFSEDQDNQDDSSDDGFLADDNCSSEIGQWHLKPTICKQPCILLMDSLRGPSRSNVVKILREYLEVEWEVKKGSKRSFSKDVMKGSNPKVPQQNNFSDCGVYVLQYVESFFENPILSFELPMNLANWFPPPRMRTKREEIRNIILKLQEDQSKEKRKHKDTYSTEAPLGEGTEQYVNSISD

Caspase-3 = target: T2, Caspase-3 (Homo sapiens, UniProt P42574); test: SAR Analysis of small molecule inhibitors of Sentrin-specific proteases (SENPs) using a Caspase-3 Selectivity assay. [Related pubchem assays (depositor defined):AID2540, AID2599, AID434973, AID489001]; type: functional
T2 sequence (P42574 whole entry): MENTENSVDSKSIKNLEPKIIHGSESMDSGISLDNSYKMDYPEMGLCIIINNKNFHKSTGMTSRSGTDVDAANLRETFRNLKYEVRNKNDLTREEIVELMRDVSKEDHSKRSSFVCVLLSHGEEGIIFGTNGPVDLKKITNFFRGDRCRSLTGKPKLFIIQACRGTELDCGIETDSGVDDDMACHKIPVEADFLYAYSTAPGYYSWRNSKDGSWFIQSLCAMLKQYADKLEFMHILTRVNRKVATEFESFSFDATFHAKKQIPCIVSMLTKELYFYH

BJ [4] = test: cytotoxicity toward BJ-TERT-LT-ST fibroblasts, dose response, cell-based, RAS-independent, luminescence (AID 1935); type: functional; conditions: Homo sapiens;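 further: BJ fibroblasts immortalized with TERT plus LT and ST oncogenes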
[5] = Luminescence-based dose response cell-based high throughput screening assay for cytotoxic compounds using the IEC-6 intestinal epithelial cell line. [Related pubchem assays: 1858 (Summary AID.), 1825 (Counterscreen.), 1907 (Confirmation screen.)]; type: functional
Paired box protein Pax-8 = Paired box protein Pax-8 (Homo sapiens, UniProt Q06710); test: inhibitors of PAX8-driven TPO luciferase reporter, dose response, RMG-I cells, cherry-pick (AID 687027); type: functional, cell-based;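 further: luciferase reporter driven by Pax8 target thyroperoxidase promoter measured by SteadyGlo luminescence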
[6] = target: T3, Mitochondrial peptide methionine sulfoxide reductase (Bos taurus, UniProt P54149); type: functional;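 further: absorbance read-out, biochemical high-throughput dose-response screen for MsrA inhibitors, confirmatory; recombinant bovine MsrA coupled to E. coli TrxB with NADPH and selenocystamine; potency is for inhibitors of MsrA activity on DMSO substrate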
T3 sequence (P54149 whole entry): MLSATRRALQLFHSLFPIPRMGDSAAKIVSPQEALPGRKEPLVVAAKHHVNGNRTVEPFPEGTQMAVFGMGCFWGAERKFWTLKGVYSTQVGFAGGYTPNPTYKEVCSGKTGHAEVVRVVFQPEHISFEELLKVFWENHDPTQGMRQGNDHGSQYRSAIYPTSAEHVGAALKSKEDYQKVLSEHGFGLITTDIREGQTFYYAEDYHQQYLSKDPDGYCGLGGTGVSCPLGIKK

BJ [7] = test: cytotoxicity toward BJ-TERT fibroblasts, dose response, cell-based, RAS-independent, luminescence (AID 1933); type: functional; conditions: Homo sapiens
[8] = HeLa cell cytotoxicity, dose response, cytotoxicity control for MgcRacGAP inhibitor project (AID 624300); type: functional
[9] = cytotoxicity toward DRD oncogenic fibroblasts, dose response, cell-based, non-viral oncogenic, luminescence (AID 1934); type: functional; conditions: Homo sapiens
[10] = non-specific cell cytotoxicity, dose response, cytotoxicity control for PAX8 inhibitor project, plate reader, dry powder samples (AID 743021); type: functional, cell-based
[11] = test system: Streptococcus sp. 'group A'; test: growth inhibition of control SK(-) GAS strain, dose response, counter-screen for streptokinase expression inhibitor project, luminescence, kanamycin, BacTiterGlo, confirmation (AID 1900); type: functional, organism-based
Streptococcus = test: Group A Streptococcus viability loss, dose response, counter-screen for streptokinase expression inhibitor project, luminescence, BacTiterGlo (AID 1915); type: functional, organism-based;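 further: potency for reduction of bacterial viability or growth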
[12] = inhibitors of intracellular T. cruzi replication, confirmation, NIH3T3 host cells, beta-gal luminescence (AID 2044); type: functional, cell-based;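 further: intracellular parasites grown in NIH/3T3 mouse fibroblasts as host cells; luminescent beta-galactosidase reporter signal from transgenic T. cruzi replicating inside host cells; inhibitors lower the luminescence signal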
[13] = microbe, parasite or virus in culture; type: functional; conditions: Mycobacterium tuberculosis

Chain of Paired box protein Pax-8 (Q06710 whole entry): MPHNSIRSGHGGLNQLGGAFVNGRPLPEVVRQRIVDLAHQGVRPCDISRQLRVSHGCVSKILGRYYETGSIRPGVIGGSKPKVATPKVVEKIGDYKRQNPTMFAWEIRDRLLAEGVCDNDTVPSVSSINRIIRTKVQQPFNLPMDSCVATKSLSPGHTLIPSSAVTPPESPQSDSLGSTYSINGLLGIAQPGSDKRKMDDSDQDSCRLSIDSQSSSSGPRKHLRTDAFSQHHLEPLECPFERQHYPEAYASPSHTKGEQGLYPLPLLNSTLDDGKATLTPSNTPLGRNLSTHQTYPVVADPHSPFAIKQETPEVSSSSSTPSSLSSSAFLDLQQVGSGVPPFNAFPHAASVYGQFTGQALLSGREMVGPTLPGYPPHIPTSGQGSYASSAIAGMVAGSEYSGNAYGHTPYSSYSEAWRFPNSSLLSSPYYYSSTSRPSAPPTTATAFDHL
Chain of Serine/threonine-protein phosphatase (Q9BPW0 whole entry): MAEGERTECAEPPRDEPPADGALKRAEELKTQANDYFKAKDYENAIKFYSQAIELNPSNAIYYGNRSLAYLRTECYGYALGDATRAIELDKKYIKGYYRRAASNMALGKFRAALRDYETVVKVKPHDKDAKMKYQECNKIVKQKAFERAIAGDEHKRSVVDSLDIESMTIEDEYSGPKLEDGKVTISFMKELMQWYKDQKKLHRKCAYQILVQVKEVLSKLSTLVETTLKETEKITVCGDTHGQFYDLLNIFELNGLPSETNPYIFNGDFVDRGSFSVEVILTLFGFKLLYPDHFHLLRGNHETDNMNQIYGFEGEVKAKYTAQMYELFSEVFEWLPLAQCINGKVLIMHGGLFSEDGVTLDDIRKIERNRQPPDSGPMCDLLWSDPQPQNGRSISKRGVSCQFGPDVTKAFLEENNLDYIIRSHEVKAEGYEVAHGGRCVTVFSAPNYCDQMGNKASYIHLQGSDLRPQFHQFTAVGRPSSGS
Chain of Protein Rev (P04618 whole entry): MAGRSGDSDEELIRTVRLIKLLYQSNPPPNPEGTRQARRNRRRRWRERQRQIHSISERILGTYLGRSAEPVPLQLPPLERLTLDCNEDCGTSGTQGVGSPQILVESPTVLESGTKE
Chain of Female germline-specific tumor suppressor gld-1 (Q17339 whole entry): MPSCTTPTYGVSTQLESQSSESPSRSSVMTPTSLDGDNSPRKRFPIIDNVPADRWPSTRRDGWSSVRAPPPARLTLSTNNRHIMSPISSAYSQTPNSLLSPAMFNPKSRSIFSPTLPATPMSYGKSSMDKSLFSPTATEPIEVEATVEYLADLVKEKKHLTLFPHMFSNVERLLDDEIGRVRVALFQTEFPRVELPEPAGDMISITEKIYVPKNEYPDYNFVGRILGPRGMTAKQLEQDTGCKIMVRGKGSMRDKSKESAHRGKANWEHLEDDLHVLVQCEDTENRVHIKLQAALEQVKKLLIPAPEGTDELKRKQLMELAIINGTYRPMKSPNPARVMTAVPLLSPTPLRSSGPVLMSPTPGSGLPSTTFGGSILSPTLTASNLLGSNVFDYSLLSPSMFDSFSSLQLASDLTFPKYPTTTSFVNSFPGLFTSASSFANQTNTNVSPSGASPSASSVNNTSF

Compound: Oc1ccc(/C=N/Nc2cc(N3CCCC3)nc(N3CCCC3)n2)cc1
- IC50 (Protein Rev): 1.36 µM (active)
- IC50 [1]: 10.9 µM (not active)
- IC50 [2]: 2.75 µM (active)
- IC50 [3]: 18.1 µM (active)
- IC50 (Caspase-3): > 99 µM (inactive)

Compound: COc1ccc(S(=O)(=O)/N=C2\C=C(Nc3ccc(O)cc3)C(=O)c3ccccc32)cc1
- EC50 (BJ [4]): 2.93 µM (inconclusive)
- IC50 [5]: 0.586 µM (active)
- AC50 (Paired box protein Pax-8): 1.86 µM (active)
- IC50 [6]: 197 µM (inactive)
- EC50 (BJ [7]): 1.53 µM (active)
- CC50 [8]: 2.15 µM (active)
- EC50 [9]: 2.89 µM (active)
- AC50 [10]: 7.4 µM (active)

Compound: Cc1cccc(C)c1-n1cccc1/C=C1\SC(=S)N(c2cccc(C(=O)O)c2)C1=O
- EC50 [11]: 2.07 µM (active)
- EC50 (Streptococcus): 8.78 µM (active)

Compound: COc1ccc(/C=N/Nc2cc(N3CCCC3)nc(N3CCCC3)n2)cc1
- EC50 [12]: 1.71 µM (active)
- CC50 [13]: 20.3 µM (active)
